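Interpolation was linear, between the two tested concentrations surrounding the appropriate level; five concentrations were tested over 48 hours in 96-well plates. The concentration for 50% growth inhibition is given as GI50.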 Active and inactive are the calls of the source. Rule as the data show it: active = GI50 up to about 1.1 µM and inactive = higher.
What was measured:
Assay in all cases: NCI anticancer screen, dose series, 48 h
A549 = test system: A549
ACHN = test system: ACHN
COLO 205 = test system: COLO 205
EKVX = test system: EKVX
HOP-62 = test system: HOP-62
HT-29 = test system: HT-29
IGROV-1 = test system: IGROV-1
M14 = test system: M14
MCF7 = test system: MCF7
MDA-MB-435 = test system: MDA-MB-435
Malme-3M = test system: Malme-3M
NCI-H522 = test system: NCI-H522
OVCAR-4 = test system: OVCAR-4
OVCAR-8 = test system: OVCAR-8
SF-295 = test system: SF-295
SF-539 = test system: SF-539
SNB-75 = test system: SNB-75
SR = test system: SR
T47D = test system: T47D
UACC-62 = test system: UACC-62

Compound | GI50 (A549) | GI50 (ACHN) | GI50 (COLO 205) | GI50 (EKVX) | GI50 (HOP-62) | GI50 (HT-29) | GI50 (IGROV-1) | GI50 (M14) | GI50 (MCF7) | GI50 (MDA-MB-435) | GI50 (Malme-3M) | GI50 (NCI-H522) | GI50 (OVCAR-4) | GI50 (OVCAR-8) | GI50 (SF-295) | GI50 (SF-539) | GI50 (SNB-75) | GI50 (SR) | GI50 (T47D) | GI50 (UACC-62)
O=C(NO)NCCCl | > 100 µM (inactive) | > 100 µM (inactive) | > 100 µM (inactive) | > 100 µM (inactive) | > 100 µM (inactive) | > 100 µM (inactive) | > 100 µM (inactive) | > 100 µM (inactive) | > 100 µM (inactive) | > 100 µM (inactive) | > 100 µM (inactive) | > 100 µM (inactive) | > 100 µM (inactive) | > 100 µM (inactive) | > 100 µM (inactive) | > 100 µM (inactive) | > 100 µM (inactive) | > 100 µM (inactive) | > 100 µM (inactive) | > 100 µM (inactive)
CC(=O)Nc1ccc2c3c(cc(O)c2c1)N(C(=O)CCCCCCC(=O)N1CC(CCl)c2c1cc(O)c1cc(NC(C)=O)ccc21)CC3CCl (stereo not given) | 0.0113 µM (active) | < 0.01 µM (active) | 0.0105 µM (active) | 0.0505 µM (active) | < 0.0116 µM (active) | 0.0172 µM (active) | 0.015 µM (active) | < 0.01 µM (active) | < 0.01 µM (active) | 0.0127 µM (active) | < 0.01 µM (active) | < 0.01 µM (active) | 0.0419 µM (active) | < 0.01 µM (active) | < 0.01 µM (active) | < 0.01 µM (active) | < 0.01 µM (active) | < 0.01 µM (active) | < 0.01 µM (active) | < 0.01 µM (active)
COC(=O)C1=C(C(=O)OC)N(c2ccc(OC)cc2[N+](=O)[O-])C(c2ccc(C)cc2)=CC1c1ccc(OC)cc1OC (stereo not given) | 7.89 µM (inactive) | 18.7 µM (inactive) | 13.2 µM (inactive) | 34.5 µM (inactive) | 26.4 µM (inactive) | 6.53 µM (inactive) | 13.3 µM (inactive) | 17.2 µM (inactive) | 4.05 µM (inactive) | 5.13 µM (inactive) | 22.2 µM (inactive) | 14.1 µM (inactive) | 44 µM (inactive) | 13.6 µM (inactive) | 29 µM (inactive) | 6.61 µM (inactive) | 18.7 µM (inactive) | 2.28 µM (inactive) | 11.1 µM (inactive) | 25.2 µM (inactive)
CCOC(=O)C1CCC/C1=N\NC(=N)N.Cc1cc(O)c(C(C)C)cc1S(=O)(=O)O (stereo not given) | > 100 µM (inactive) | > 100 µM (inactive) | > 100 µM (inactive) | > 100 µM (inactive) | > 100 µM (inactive) | > 100 µM (inactive) | > 100 µM (inactive) | > 100 µM (inactive) | > 100 µM (inactive) | > 100 µM (inactive) | > 100 µM (inactive) | > 100 µM (inactive) | > 100 µM (inactive) | > 100 µM (inactive) | > 100 µM (inactive) | > 100 µM (inactive) | 36.2 µM (inactive) | > 100 µM (inactive) | > 100 µM (inactive) | > 100 µM (inactive)
O=[N+]([O-])c1ccc2c(c1)Nc1c3ccccc3nc3cccc-2c13 | 2.16 µM (inactive) | 18.1 µM (inactive) | 2.68 µM (inactive) | 11.6 µM (inactive) | 2.07 µM (inactive) | 3.1 µM (inactive) | 1.47 µM (inactive) | 3.21 µM (inactive) | 0.219 µM (active) | 4.23 µM (inactive) | 2 µM (inactive) | 3.44 µM (inactive) | 1.43 µM (inactive) | 1.17 µM (inactive) | 0.482 µM (active) | 12.1 µM (inactive) | 3.61 µM (inactive) | 0.733 µM (active) | 3.95 µM (inactive) | 4.16 µM (inactive)
CCOC(=O)c1c(C)[nH]c2c1c(CN(C)C)c(O)c1nc(C)c(C)nc12 | 22.4 µM (inactive) | 20.5 µM (inactive) | 14.5 µM (inactive) | 27.3 µM (inactive) | 20 µM (inactive) | 21.6 µM (inactive) | 24.2 µM (inactive) | 36.1 µM (inactive) | 17.9 µM (inactive) | 25.6 µM (inactive) | 18.5 µM (inactive) | 16.3 µM (inactive) | 27.2 µM (inactive) | 21.4 µM (inactive) | 20.2 µM (inactive) | 18 µM (inactive) | 23.3 µM (inactive) | 16.5 µM (inactive) | 27 µM (inactive) | 15.6 µM (inactive)
Cc1c(N2CCCC2)cc2c(c1NC(=O)c1ccccc1Cl)C(C)(C)CC2(C)C | 12.9 µM (inactive) | 15 µM (inactive) | 18.2 µM (inactive) | 14.5 µM (inactive) | 14.2 µM (inactive) | 14.3 µM (inactive) | 13.6 µM (inactive) | 13.5 µM (inactive) | 13.8 µM (inactive) | 14.4 µM (inactive) | 17.7 µM (inactive) | 13.1 µM (inactive) | 15.7 µM (inactive) | 16 µM (inactive) | 13.3 µM (inactive) | 19.8 µM (inactive) | 15.5 µM (inactive) | 14.7 µM (inactive) | 11.5 µM (inactive) | 10.8 µM (inactive)

Reference: ChEMBL document CHEMBL1201862, “PubChem BioAssay data set” (2004)
